Experiments:
Type in all cases: cell-based
Conditions in all cases: 24 h incubation, visual reading
[1] = system: Streptococcus pneumoniae MDR ATCC 700677; experiment: MIC assay, S. pneumoniae MDR ATCC 700677
How it was run: (§1)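 MHB broth microdilution, twofold series, compounds 8–0.003 μg/ml; mid-log inoculum 5×10e5 CFU/mL; 37° C, 24 h; MIC read visually as lowest concentration without growth.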

[2] = system: Staphylococcus aureus MRSA ATCC 43300; experiment: MIC assay, S. aureus MRSA ATCC 43300
How it was run: as §1

[3] = system: Enterococcus faecium MDR Van A ATCC 51559; experiment: MIC assay, E. faecium MDR Van A ATCC 51559
How it was run: as §1

Compound | Minimum Inhibitory Concentration (MIC) S. pneumoniae ATCC 700677 [1] | Minimum Inhibitory Concentration (MIC) Staph. aureus ATCC43300 [2] | Minimum Inhibitory Concentration (MIC) E. faecium ATCC51559 [3]
CCCCCCCCCCCC(=O)N[C@@H](CCCCN)C(=O)N[C@@H](CCCCNC(=O)[C@H]1NC(=O)[C@H]2NC(=O)[C@H](NC(=O)[C@@H]3NC(=O)[C@H](CC(N)=O)NC(=O)[C@H](NC(=O)[C@@H](CC(C)C)NC)[C@H](O)c4ccc(c(Cl)c4)Oc4cc3cc(c4O[C@@H]3O[C@H](CO)[C@@H](O)[C@H](O)[C@H]3O[C@H]3C[C@](C)(N)[C@H](O)[C@H](C)O3)Oc3ccc(cc3Cl)[C@H]2O)c2ccc(O)c(c2)-c2c(O)cc(O)cc21)C(N)=O [MCC_005063] | xxxxx (xxxxx = <0.01) | xxxxx (xxxxx = <0.01) | xx (xx = 1-4)
CCCCCCCCCCC(=O)N[C@@H](CCCCN)C(=O)NCCNC(=O)[C@H]1NC(=O)[C@H]2NC(=O)[C@H](NC(=O)[C@@H]3NC(=O)[C@H](CC(N)=O)NC(=O)[C@H](NC(=O)[C@@H](CC(C)C)NC)[C@H](O)c4ccc(c(Cl)c4)Oc4cc3cc(c4O[C@@H]3O[C@H](CO)[C@@H](O)[C@H](O)[C@H]3O[C@H]3C[C@](C)(N)[C@H](O)[C@H](C)O3)Oc3ccc(cc3Cl)[C@H]2O)c2ccc(O)c(c2)-c2c(O)cc(O)cc21 [MCC_005163] | xxxx (xxxx = 0.01-<0.1) | xxxxx (xxxxx = <0.01) | x (x = >4)
CCCCCCCC(=O)N[C@@H](CCCCN)C(=O)N[C@@H](CCCCN)C(=O)NCCNC(=O)[C@H]1NC(=O)[C@H]2NC(=O)[C@H](NC(=O)[C@@H]3NC(=O)[C@H](CC(N)=O)NC(=O)[C@H](NC(=O)[C@@H](CC(C)C)NC)[C@H](O)c4ccc(c(Cl)c4)Oc4cc3cc(c4O[C@@H]3O[C@H](CO)[C@@H](O)[C@H](O)[C@H]3O[C@H]3C[C@](C)(N)[C@H](O)[C@H](C)O3)Oc3ccc(cc3Cl)[C@H]2O)c2ccc(O)c(c2)-c2c(O)cc(O)cc21 [MCC_005164] | xxx (xxx = 0.1-<1) | xxx (xxx = 0.1-<1) | x (x = >4)
CCCCCCCCCCC(=O)N[C@@H](CCCCN)C(=O)N[C@@H](CCCCN)C(=O)N[C@@H](CCCCN)C(=O)NCCNC(=O)[C@H]1NC(=O)[C@H]2NC(=O)[C@H](NC(=O)[C@@H]3NC(=O)[C@H](CC(N)=O)NC(=O)[C@H](NC(=O)[C@@H](CC(C)C)NC)[C@H](O)c4ccc(c(Cl)c4)Oc4cc3cc(c4O[C@@H]3O[C@H](CO)[C@@H](O)[C@H](O)[C@H]3O[C@H]3C[C@](C)(N)[C@H](O)[C@H](C)O3)Oc3ccc(cc3Cl)[C@H]2O)c2ccc(O)c(c2)-c2c(O)cc(O)cc21 [MCC_005182] | xxxx (xxxx = 0.01-<0.1) | xxxxx (xxxxx = <0.01) | xx (xx = 1-4)
CCCCCCCC(=O)N[C@@H](CCCCN)C(=O)NCCNC(=O)[C@H]1NC(=O)[C@H]2NC(=O)[C@H](NC(=O)[C@@H]3NC(=O)[C@H](CC(N)=O)NC(=O)[C@H](NC(=O)[C@@H](CC(C)C)NC)[C@H](O)c4ccc(c(Cl)c4)Oc4cc3cc(c4O[C@@H]3O[C@H](CO)[C@@H](O)[C@H](O)[C@H]3O[C@H]3C[C@](C)(N)[C@H](O)[C@H](C)O3)Oc3ccc(cc3Cl)[C@H]2O)c2ccc(O)c(c2)-c2c(O)cc(O)cc21 [MCC_005183] | xxx (xxx = 0.1-<1) | xxx (xxx = 0.1-<1) | x (x = >4)
CCCCCCCC(=O)N[C@@H](CCCCN)C(=O)N[C@@H](CCCCN)C(=O)NCCCNC(=O)[C@H]1NC(=O)[C@H]2NC(=O)[C@H](NC(=O)[C@@H]3NC(=O)[C@H](CC(N)=O)NC(=O)[C@H](NC(=O)[C@@H](CC(C)C)NC)[C@H](O)c4ccc(c(Cl)c4)Oc4cc3cc(c4O[C@@H]3O[C@H](CO)[C@@H](O)[C@H](O)[C@H]3O[C@H]3C[C@](C)(N)[C@H](O)[C@H](C)O3)Oc3ccc(cc3Cl)[C@H]2O)c2ccc(O)c(c2)-c2c(O)cc(O)cc21 [MCC_005196] | xxx (xxx = 0.1-<1) | xxx (xxx = 0.1-<1) | xx (xx = 1-4)
CCCCCCCCCCC(=O)N[C@@H](CCCCN)C(=O)NCCCNC(=O)[C@H]1NC(=O)[C@H]2NC(=O)[C@H](NC(=O)[C@@H]3NC(=O)[C@H](CC(N)=O)NC(=O)[C@H](NC(=O)[C@@H](CC(C)C)NC)[C@H](O)c4ccc(c(Cl)c4)Oc4cc3cc(c4O[C@@H]3O[C@H](CO)[C@@H](O)[C@H](O)[C@H]3O[C@H]3C[C@](C)(N)[C@H](O)[C@H](C)O3)Oc3ccc(cc3Cl)[C@H]2O)c2ccc(O)c(c2)-c2c(O)cc(O)cc21 [MCC_005198] | xxxx (xxxx = 0.01-<0.1) | xxxx (xxxx = 0.01-<0.1) | xx (xx = 1-4)
CCCCCCCCC(=O)N[C@@H](CCCCN)C(=O)N[C@@H](CCCCN)C(=O)NCCCNC(=O)[C@H]1NC(=O)[C@H]2NC(=O)[C@H](NC(=O)[C@@H]3NC(=O)[C@H](CC(N)=O)NC(=O)[C@H](NC(=O)[C@@H](CC(C)C)NC)[C@H](O)c4ccc(c(Cl)c4)Oc4cc3cc(c4O[C@@H]3O[C@H](CO)[C@@H](O)[C@H](O)[C@H]3O[C@H]3C[C@](C)(N)[C@H](O)[C@H](C)O3)Oc3ccc(cc3Cl)[C@H]2O)c2ccc(O)c(c2)-c2c(O)cc(O)cc21 [MCC_005199] | xxxx (xxxx = 0.01-<0.1) | xxxx (xxxx = 0.01-<0.1) | xx (xx = 1-4)
CCCCCCCC(=O)N[C@@H](CCCCN)C(=O)N[C@@H](CCCCNC(=O)[C@H]1NC(=O)[C@H]2NC(=O)[C@H](NC(=O)[C@@H]3NC(=O)[C@H](CC(N)=O)NC(=O)[C@H](NC(=O)[C@@H](CC(C)C)NC)[C@H](O)c4ccc(c(Cl)c4)Oc4cc3cc(c4O[C@@H]3O[C@H](CO)[C@@H](O)[C@H](O)[C@H]3O[C@H]3C[C@](C)(N)[C@H](O)[C@H](C)O3)Oc3ccc(cc3Cl)[C@H]2O)c2ccc(O)c(c2)-c2c(O)cc(O)cc21)C(=O)O [MCC_005222] | xx (xx = 1-4) | xx (xx = 1-4) | x (x = >4)
CCCCCCCCCCCC(=O)N[C@@H](CCCCN)C(=O)N[C@@H](CCCCNC(=O)[C@H]1NC(=O)[C@H]2NC(=O)[C@H](NC(=O)[C@@H]3NC(=O)[C@H](CC(N)=O)NC(=O)[C@H](NC(=O)[C@@H](CC(C)C)NC)[C@H](O)c4ccc(c(Cl)c4)Oc4cc3cc(c4O[C@@H]3O[C@H](CO)[C@@H](O)[C@H](O)[C@H]3O[C@H]3C[C@](C)(N)[C@H](O)[C@H](C)O3)Oc3ccc(cc3Cl)[C@H]2O)c2ccc(O)c(c2)-c2c(O)cc(O)cc21)C(=O)O [MCC_005224] | xxxx (xxxx = 0.01-<0.1) | xxxx (xxxx = 0.01-<0.1) | xx (xx = 1-4)

Source: patent US10947271B2, “Antibacterial agents” (THE UNIVERSITY OF QUEENSLAND, priority 2014, dated 2021)
